Results taken from patent US20230024302A1, “2,3,5-TRISUBSTITUTED PYRAZOLO[1,5-A]PYRIMIDINE COMPOUNDS” (Arcus Biosciences, Inc., priority 2019, published 2023).

Experiments:
PI3Kγ = target: T1, PI3Kγ (Homo sapiens, UniProt P48736); assay: PI3Kγ cellular assay in THP-1 cells (AKT pS473 AlphaLISA); type: cell-based; settings: Table 1, rhMCP-1 stimulated AKT pS473, read-out: cellular potency (PI3Kγ IC50)
T1 construct: host or cells: THP-1
Procedure: Twenty microliters of serum starved THP-1 cells were added to the compound plate in serum free DMEM at a density of 9×10^6 cells per ml. Final assay conditions comprised 1.8×10^5 THP-1 cells per well with test compounds in 2% DMSO across a concentration range from 4 nM to 30 μM. […] Briefly, 10 μL of 4× lysis buffer was added to cells after stimulation. Following 60 min incubation at rt, 10 μL of cell lysate was transferred to a fresh 384-well Opti-plate to which 5 μL of AlphaLisa acceptor beads and 5 μL of AlphaLisa donor beads had been added. […] PI3Kγ activity was evaluated as a correlate of endogenous AKT phosphorylation levels. Percentage maximum activity in each test well was calculated based on DMSO (100% activity) and positive control treated cell wells (0% activity). The potencies (IC50's) of test compounds were determined using a standard 4-parameter fit non-linear regression fit.

PI3Kγ (p120γ) = target: T2, PI3Kγ (p120γ) (Homo sapiens, UniProt P48736); assay: Inhibition of PI3K kinase activity (ADP Glo), PI3Kγ; settings: Table 1, p120γ, read-out: biochemical potency (PI3Kγ IC50)
T2 construct: purchased Promega V1761
Procedure: Compounds were evaluated to determine the potency with which they inhibited the kinase activity of the Class I PI3K subunits p110α/p85α (Promega, Cat #V1721), p110β/p85α (Promega, Cat #V1751), p120γ (Promega, Cat #V1761) and p110δ/p85α (Promega, Cat #V1771). Activity was determined as a function of ADP (adenosine diphosphate) generated from ATP consumed during the phosphorylation of Phosphatidylinositol 4,5-bisphosphate (PIP2) (Promega, Cat #V1701) to yield Phosphatidylinositol (3,4,5)-trisphosphate (PIP3). ADP levels in the assay mixture at the end of the reaction were quantitated using ADP Glo (Promega, Cat #V9103) according to the manufacturer's recommended protocol.
Enzyme was prepared for each of the PI3K subunits in 100 mM HEPES, pH 7.4, 100 mM NaCl, 6 mM MgCl2 and 0.05% BSA. p110α/p85α was prepared at 2 nM (2×), p110β/p85α was prepared at 7 nM (2×), p120γ was prepared at 8 nM (2×) and p110δ/p85α was prepared at 2 nM (2×). Five microliters of 2× enzyme dilution of each PI3K subunit were added to a 384-well white Opti-plates pre-dispensed with compound and allowed to incubate for 1 h at rt. A substrate mix containing 0.1 mg/ml (2×) of PIP2 and 50 μM (2×) ATP (Promega, Cat #V915) was prepared in 25 mM HEPES and 0.5 mM EGTA. Reactions were initiated by addition of 5 μl of 2× substrate mix to each well of the plates containing various PI3K isoforms and allowed to proceed for 60 min at rt. Ten microliters of ADP Glo reagent 1 were added to the wells of each plate and allowed to incubate at rt for 45 min according to the manufacturer's directions. Following incubation, 20 μl of ADP Glo reagent 2 was added to each plate and allowed to incubate for an additional 45 min. Luminescent signal, generated by ADP Glo, was quantified by reading on a Perkin Elmer Envision multimode reader. Compound potencies (IC50's) were determined using a standard 4-parameter fit non-linear regression fit.

T2 sequence (P48736 whole entry): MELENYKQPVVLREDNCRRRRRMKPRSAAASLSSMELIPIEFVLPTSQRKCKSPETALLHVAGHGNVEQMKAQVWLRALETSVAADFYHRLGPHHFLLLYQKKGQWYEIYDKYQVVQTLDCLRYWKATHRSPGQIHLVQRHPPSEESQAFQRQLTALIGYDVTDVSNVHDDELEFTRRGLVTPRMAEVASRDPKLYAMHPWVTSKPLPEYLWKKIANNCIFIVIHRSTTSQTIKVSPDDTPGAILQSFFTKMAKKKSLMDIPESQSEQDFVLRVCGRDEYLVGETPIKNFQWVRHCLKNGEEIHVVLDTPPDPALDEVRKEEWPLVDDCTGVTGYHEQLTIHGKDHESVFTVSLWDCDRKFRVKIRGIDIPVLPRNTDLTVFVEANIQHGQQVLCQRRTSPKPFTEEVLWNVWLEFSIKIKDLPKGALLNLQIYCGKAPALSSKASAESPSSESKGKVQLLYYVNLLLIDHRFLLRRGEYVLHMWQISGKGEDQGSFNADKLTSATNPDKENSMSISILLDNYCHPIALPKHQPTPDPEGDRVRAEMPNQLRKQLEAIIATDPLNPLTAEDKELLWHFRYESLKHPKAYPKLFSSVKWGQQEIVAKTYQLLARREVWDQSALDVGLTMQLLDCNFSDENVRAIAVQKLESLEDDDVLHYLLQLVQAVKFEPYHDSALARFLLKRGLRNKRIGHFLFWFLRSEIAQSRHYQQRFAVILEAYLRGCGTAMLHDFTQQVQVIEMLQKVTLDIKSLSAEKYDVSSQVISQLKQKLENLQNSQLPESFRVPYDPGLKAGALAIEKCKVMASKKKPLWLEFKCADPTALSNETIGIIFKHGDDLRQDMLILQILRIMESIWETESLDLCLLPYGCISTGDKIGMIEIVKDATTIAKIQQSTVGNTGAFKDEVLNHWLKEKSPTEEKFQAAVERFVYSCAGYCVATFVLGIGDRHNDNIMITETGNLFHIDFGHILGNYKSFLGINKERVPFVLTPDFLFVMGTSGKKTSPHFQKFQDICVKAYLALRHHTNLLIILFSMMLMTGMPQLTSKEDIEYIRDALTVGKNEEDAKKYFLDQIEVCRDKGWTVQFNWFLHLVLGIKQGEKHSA
T1 sequence (P48736 whole entry): as above

Row | Structure (SMILES) | IC50 (PI3Kγ) | IC50 (PI3Kγ (p120γ))
1 | Cc1cc(-c2ccn3nc(N)c(C(=O)N[C@H]4CC[C@@](C)(O)CC4)c3n2)cc2c1C(=O)N([C@@H](C)C1CC1)C2 [Example 2, 2-Amino-5-{2-[(1S)-1-cyclopropylethyl]-7-methyl-1-oxo-2,3-dihydro-1H-isoindol-5-yl}-N-[cis-4-hydroxy-4-methylcyclohexyl]pyrazolo[1,5-a]pyrimidine-3-carboxamide] | < 100 nM | < 100 nM
2 | Cc1cc(-c2ccn3nc(N)c(C(=O)N[C@H]4CC[C@H](O)C4)c3n2)cc2c1C(=O)N([C@@H](C)C1CC1)C2 [Example 3, 2-Amino-5-{2-[(1S)-1-cyclopropylethyl]-7-methyl-1-oxo-2,3-dihydro-1H-isoindol-5-yl}-N-[(1S,3S)-3-hydroxycyclopentyl]pyrazolo[1,5-a]pyrimidine-3-carboxamide] | < 100 nM | < 100 nM
3 | Cc1cc(-c2ccn3nc(N)c(C(=O)NC[C@H]4C[C@H](O)C4)c3n2)cc2c1C(=O)N([C@@H](C)C1CC1)C2 [Example 4] | < 100 nM | < 100 nM
4 | Cc1cc(-c2ccn3nc(N)c(C(=O)N[C@@H]4CC[C@@H](O)C4)c3n2)cc2c1C(=O)N([C@@H](C)C1CC1)C2 [Example 5, 2-Amino-5-{2-[(1S)-1-cyclopropylethyl]-7-methyl-1-oxo-2,3-dihydro-1H-isoindol-5-yl}-N-[(1R,3R)-3-hydroxycyclopentyl]pyrazolo[1,5-a]pyrimidine-3-carboxamide] | < 100 nM | < 100 nM
5 | Cc1cc(-c2ccn3nc(N)c(C(=O)N[C@H]4C[C@](C)(O)C4)c3n2)cc2c1C(=O)N([C@@H](C)C1CC1)C2 [Example 6, 2-Amino-5-{2-[(1S)-1-cyclopropylethyl]-7-methyl-1-oxo-2,3-dihydro-1H-isoindol-5-yl}-N-[trans-3-hydroxy-3-methylcyclobutyl]pyrazolo[1,5-a]pyrimidine-3-carboxamide] | < 100 nM | < 100 nM
6 | Cc1cc(-c2ccn3nc(N)c(C(=O)N[C@H]4CC[C@](C)(O)CC4)c3n2)cc2c1C(=O)N([C@@H](C)C1CC1)C2 [Example 7, 2-Amino-5-{2-[(1S)-1-cyclopropylethyl]-7-methyl-1-oxo-2,3-dihydro-1H-isoindol-5-yl}-N-[trans-4-hydroxy-4-methylcyclohexyl]pyrazolo[1,5-a]pyrimidine-3-carboxamide] | < 100 nM | < 100 nM
7 | Cc1cc(-c2ccn3nc(N)c(C(=O)N[C@@H]4CCC[C@H]4O)c3n2)cc2c1C(=O)N([C@@H](C)C1CC1)C2 [Example 8, 2-Amino-5-{2-[(1S)-1-cyclopropylethyl]-7-methyl-1-oxo-2,3-dihydro-1H-isoindol-5-yl}-N-[(1R,2R)-2-hydroxycyclopentyl]pyrazolo[1,5-a]pyrimidine-3-carboxamide] | < 100 nM | < 100 nM
8 | Cc1cc(-c2ccn3nc(N)c(C(=O)N[C@H]4CCC[C@@H](O)C4)c3n2)cc2c1C(=O)N([C@@H](C)C1CC1)C2 [Example 9, 2-Amino-5-{2-[(1S)-1-cyclopropylethyl]-7-methyl-1-oxo-2,3-dihydro-1H-isoindol-5-yl}-N-[(1S,3R)-3-hydroxycyclohexyl]pyrazolo[1,5-a]pyrimidine-3-carboxamide] | < 100 nM | < 100 nM
9 | Cc1cc(-c2ccn3nc(N)c(C(=O)N[C@H]4CNC(=O)C4)c3n2)cc2c1C(=O)N([C@@H](C)C1CC1)C2 [Example 10, 2-Amino-5-{2-[(1S)-1-cyclopropylethyl]-7-methyl-1-oxo-2,3-dihydro-1H-isoindol-5-yl}-N-[(3R)-5-oxopyrrolidin-3-yl]pyrazolo[1,5-a]pyrimidine-3-carboxamide] | < 100 nM | < 100 nM
10 | Cc1cc(-c2ccn3nc(N)c(C(=O)N[C@@H]4CCC[C@@H](O)C4)c3n2)cc2c1C(=O)N([C@@H](C)C1CC1)C2 [Example 11, 2-Amino-5-{2-[(1S)-1-cyclopropylethyl]-7-methyl-1-oxo-2,3-dihydro-1H-isoindol-5-yl}-N-[(1R,3R)-3-hydroxycyclohexyl]pyrazolo[1,5-a]pyrimidine-3-carboxamide] | < 100 nM | < 100 nM
11 | Cc1cc(-c2ccn3nc(N)c(C(=O)N[C@H]4C[C@H](CO)C4)c3n2)cc2c1C(=O)N([C@@H](C)C1CC1)C2 [Example 12, 2-Amino-5-{2-[(1S)-1-cyclopropylethyl]-7-methyl-1-oxo-2,3-dihydro-1H-isoindol-5-yl}-N-[trans-3-(hydroxymethyl)cyclobutyl]pyrazolo[1,5-a]pyrimidine-3-carboxamide] | < 100 nM | < 100 nM
12 | Cc1cc(-c2ccn3nc(N)c(C(=O)N[C@]4(C)C[C@@H](O)C4)c3n2)cc2c1C(=O)N([C@@H](C)C1CC1)C2 [Example 13, 2-Amino-5-{2-[(1S)-1-cyclopropylethyl]-7-methyl-1-oxo-2,3-dihydro-1H-isoindol-5-yl}-N-[trans-3-hydroxy-1-methylcyclobutyl]pyrazolo[1,5-a]pyrimidine-3-carboxamide] | < 100 nM | < 100 nM
13 | Cc1cc(-c2ccn3nc(N)c(C(=O)N[C@H]4C[C@H](C(C)(C)O)C4)c3n2)cc2c1C(=O)N([C@@H](C)C1CC1)C2 [Example 14, 2-Amino-5-{2-[(1S)-1-cyclopropylethyl]-7-methyl-1-oxo-2,3-dihydro-1H-isoindol-5-yl}-N-[trans-3-(2-hydroxypropan-2-yl)cyclobutyl]pyrazolo[1,5-a]pyrimidine-3-carboxamide] | < 100 nM | < 100 nM
14 | Cc1cc(-c2ccn3nc(N)c(C(=O)Nc4cccc(C(=O)O)c4)c3n2)cc2c1C(=O)N([C@@H](C)C1CC1)C2 [Example 15, m-[(5-{2-[(S)-1-Cyclopropylethyl]-7-methyl-5-isoindolinoyl}-2-amino-1,4,7a-triaza-3-indenyl)carbonylamino]benzoic acid] | < 100 nM | < 100 nM
15 | Cc1cc(-c2ccn3nc(N)c(C(=O)Nc4cnn(CCO)c4)c3n2)cc2c1C(=O)N([C@@H](C)C1CC1)C2 [Example 16, 2-Amino-5-{2-[(1S)-1-cyclopropylethyl]-7-methyl-1-oxo-2,3-dihydro-1H-isoindol-5-yl}-N-[1-(2-hydroxyethyl)-1H-pyrazol-4-yl]pyrazolo[1,5-a]pyrimidine-3-carboxamide] | < 100 nM | < 100 nM
16 | Cc1cc(-c2ccn3nc(N)c(C(=O)Nc4cnn(CC(C)(C)O)c4)c3n2)cc2c1C(=O)N([C@@H](C)C1CC1)C2 [Example 17, 2-Amino-5-{2-[(1S)-1-cyclopropylethyl]-7-methyl-1-oxo-2,3-dihydro-1H-isoindol-5-yl}-N-[1-(2-hydroxy-2-methylpropyl)-1H-pyrazol-4-yl]pyrazolo[1,5-a]pyrimidine-3-carboxamide] | < 100 nM | < 100 nM
17 | Cc1cc(-c2ccn3nc(N)c(C(=O)Nc4cnn(C)c4)c3n2)cc2c1C(=O)N([C@@H](C)C1CC1)C2 [Example 18, 2-Amino-5-{2-[(1S)-1-cyclopropylethyl]-7-methyl-1-oxo-2,3-dihydro-1H-isoindol-5-yl}-N-(1-methyl-1H-pyrazol-4-yl)pyrazolo[1,5-a]pyrimidine-3-carboxamide] | < 100 nM | < 100 nM
18 | Cc1cc(-c2ccn3nc(N)c(C(=O)Nc4cnn(C)c4C)c3n2)cc2c1C(=O)N([C@@H](C)C1CC1)C2 [Example 19, 2-Amino-5-{2-[(1S)-1-cyclopropylethyl]-7-methyl-1-oxo-2,3-dihydro-1H-isoindol-5-yl}-N-(1,5-dimethyl-1H-pyrazol-4-yl)pyrazolo[1,5-a]pyrimidine-3-carboxamide] | < 100 nM | < 100 nM
